The text below walks through data of patent US20250123268A1, “COMPOSITIONS AND METHODS FOR ACCELERATING DEVELOPMENT OF CANCER THERAPEUTICS” (NetNoids Rx Laboratories, LLC, priority 2023, published 2025).

Entries after “also recorded” stand apart in the source; their conditions may differ.

One assay relates to TNBC-1. The assay is described as follows: COMPASS C1/C3a/C3c drug regimen testing, TNBC-1 tumor volume. It counts as cell-based, human. The settings on record: for tumor volume (efficacy): 50 nM & 500 nM. On the procedure:
Methods: COMPASS Platforms for TIME Modeling for Drug Regimen Testing: I.A. C1/C3a/C3c for TNBC-1 against 1) Doxorubicin 50 nM & 500 nM (Control: DMSO 0.01%), 2) Sacituzumab 5 nM & 20 nM [Control: PBS 0.01%] via continuous treatment w/initial administration at post-seeding Day 1; I.B. C2/C3b/C3d for GBC-1 against 1) Gemcitabine+Cisplatin 1 μM & 10 μM (G+C 7:1 ratio) (Control: DMSO 0.03%) 2) Gemcitabine+Cisplatin 1 μM+Durvalumab 0.1 nM; Gemcitabine+Cisplatin 10 μM+Durvalumab 1 nM (Control: DMSO 0.03%) (G+C 7:1 ratio) via continuous treatment w/initial administration at post-seeding Day 3; II. C1/C3b/C3d for HUAS-1 against 1) HSP90i 50 nM & 100 nM, (Control: DMSO 0.01-0.5%), 2) HSP90i 50 nM+Doxorubicin 50 nM & HSP90i 100 nM+Doxorubicin 50 nM, (Control: DMSO 0.01-0.5%) via continuous treatment w/initial administration at post-seeding Day 3; • Experimental Set-Up: Series (C1/C2) & representative parallel experimentation (C3), n=3 per group; • Evaluation: Imaging—Phase Contrast Imaging via Biotek Cytation 5 (Agilent) with partial well plug for object selection ([…] for C1/C2 & […] for C3) towards tumor volume analysis at Timepoints Day 3 and Day 7/10; • Statistics: One-way ANOVA followed by Tukey's pairwise comparison, n=3, (p<0.05).
FIGS. 28A-L: Common Cancers (TNBC and GBC) vs Established Drug Regimens (Doxorubicin/Sacituzumab and Gemcitabine+Cisplatin+/−Durvalumab, respectively) treatment profiles across progressing, appropriately-matched COMPASS Platforms at Day 3 and Day 10 Timepoints. Compass 1 is used for small molecules. Compass 2 is used in studies when Durvalumab (which is an anti-PDL 1 inhibitor) is added and it works by using the immune system (checkpoint inhibitor), which makes the immune system […]. Sub-studies highlighting the versatility of COMPASS platforms in the generation of specific Tumor-Immune-Microenvironment Models—designed appropriately for intended drug mechanism testing of already clinically-approved treatment regimens. […]

Assay [1] has as its system PDL-1 positive PDT of TNBC. The assay is described as follows: PDL-1 positive TNBC PDT tumor volume, anti-PD1 treatment, with/without PBMCs (COMPASS 2). The assay is classed as cell-based, human. The conditions noted are these: same model without the addition of PBMCs.
Protocol: All experiments were conducted with n=3 replicates and data was analyzed by One Way ANOVA followed by student's t-test to check for statistical significance.

For the molecule `COc1cccc2c1C(=O)c1c(O)c3c(c(O)c1C2=O)C[C@@](O)(C(=O)CO)C[C@@H]3O[C@H]1C[C@H](N)[C@H](O)[C@H](C)O1` [Doxorubicin], the figures for the “tumor volume (efficacy)” value in the assay with TNBC-1 (C1 model) and in the assay on TNBC-1 (C3 models) were “slight efficacy” and “potential resistance”, respectively.

As for Pembrolizumab [anti-PD1 inhibitor], in assay [1], the “immune checkpoint mediated reduction in tumor volume” value is on record as “not observed”.

Turning to Sacituzumab, the “tumor volume vs control” value in the assay on TNBC-1 (5 nM & 20 nM, supplemental structural matrix & oxygenation (C3c), p=0.04) is “revealed efficacy in oxygenated conditions; also recorded: tumor volume reduction vs control”.
